Entries after “also recorded” stand apart in the source; their conditions may differ.

The IC50 is the concentration at which inhibition is half-maximal.

Assay [1] concerns human kinases (456 kinases). Kind of assay: KINOMEscan in vitro kinase profiling (primary screen binding interactions, % Ctrl, S-score). To be noted: for interaction with the 456 kinases tested: screened at 1 μM; for S-score, type S1 / S-score, type S10 / Number of hits/number of kinases, S10 / Number of hits/number of kinases, S1 / Kinase targets, S10 / Kinase targets, S1: tested at 1 μM; for S-score, type S1: S(1)=(number of kinases with % Ctrl<1)/(number of kinases tested); for S-score, type S10: S(10)=(number of kinases with % Ctrl <10)/(number of kinases tested); for Number of hits/number of kinases, S10: hits with % Ctrl <10; for Number of hits/number of kinases, S1: hits with % Ctrl<1; for Kinase targets, S10: kinases with % Ctrl <10; for Kinase targets, S1: kinases with % Ctrl<1. As for the experimental part: An in vitro kinase profiling was conducted in order to evidence the absence of protein kinase inhibition by the compounds of the invention.
DiscoveRx (Ambit Biosciences) has developed a high-throughput system (KINOMEscan™) for screening of compounds against large numbers of human kinases (456 kinases).
The compounds of the invention were screened at the concentration of 1 μM, and results for primary screen binding interactions were reported as percent control (% Ctrl), where lower numbers indicate stronger hits. DMSO is used as a negative control (100% Ctrl) while a high affinity compound is used as a positive control (0% Ctrl). % Ctrl is calculated as follow: […]
Selectivity Score or S-score is a quantitative measure of compound selectivity. It is calculated by dividing the number of kinases that compounds bind to by the total number of distinct kinases tested, excluding mutant variants. S(10)=(number of kinases with % Ctrl <10)/(number of kinases tested), S(1)=(number of kinases with % Ctrl<1)/(number of kinases tested).

The test system of the next assay is HL60. Briefly: CellTiter-Blue cell-based survival/proliferation assay, HL60 (leukemia). To be noted: Homo sapiens, HL-60; HL60 cells, 48 h; read-out: Anti-tumoral activity (measured IC50), Leukemia HL60. As for the experimental part: (§1) Compounds of formula (I) were tested against a panel of about 34 human tumor cell lines representing 17 cancer type, namely leukemia (represented by 1 cell line), lymphoma (4 cell lines), myeloma (1 cell line), colorectal (2 cell lines), head and neck (3 cell lines), lung (3 cell lines), melanoma (2 cell lines), pancreas (2 cell lines), prostate (2 cell lines), ovary (2 cell lines) breast (2 cell lines), kidney (2 cell lines), stomach (2 cell lines), liver (2 cell lines), glioblastoma (2 cell lines), osteosarcoma (1 cell line), Ewing Sarcoma (1 cell line).
(§2) CellTiter-Blue cell-based survival/proliferation assay (Promega G8080) was performed on tumor cell lines. A total of 1.10^4 cells/well/50 μl were seeded in a 96-wells plate. Treatment was initiated by addition of a 2× drug solution of 1/10 serial dilutions ranging from 0 to 10 μM. Cells were grown for 48 h at 37° C. and then incubated with 10 μl/well of Promega CellTiter-Bleue reagent for 4 h at 37° C. The amount of resorufin dye formed was quantified by its fluorescence emission at 590 nm using a scanning multiwell spectrophotometer (OPTIMA, BMG labtech, France). A blank well without cells was used as a background control for the spectrophotometer.
(The colour change of resazurin is a common sign of viable cells or microbes.)

Another assay concerns OPM2. Briefly: CellTiter-Blue cell-based survival/proliferation assay, OPM2 (myeloma). To be noted: Homo sapiens, OPM-2; OPM2 cells, 48 h; read-out: Anti-tumoral activity (measured IC50), Myeloma OPM2. The method, then:
as §1, §2

For another assay, the system named is A498. Briefly: CellTiter-Blue cell-based survival/proliferation assay, A498. To be noted: Homo sapiens, Kidney, 48 h. As for the experimental part: as §1, §2
Another assay relates to A549. Kind of assay: CellTiter-Blue cell-based survival/proliferation assay, A549. To be noted: Homo sapiens, Lung, 48 h. As for the experimental part: as §1, §2
The test system of the next assay is ACHN. Kind of assay: CellTiter-Blue cell-based survival/proliferation assay, ACHN. To be noted: Homo sapiens, Kidney, 48 h. As for the experimental part:
as §1, §2

For another assay, the system named is AGS. Briefly: CellTiter-Blue cell-based survival/proliferation assay, AGS. To be noted: Homo sapiens, Stomach, 48 h. As for the experimental part:
as §1, §2

The next assay concerns BT20. Briefly: CellTiter-Blue cell-based survival/proliferation assay, BT20. To be noted: Homo sapiens, BT-20, Breast, 48 h. As for the experimental part:
as §1, §2

The next assay has as its system BXPC3. Briefly: CellTiter-Blue cell-based survival/proliferation assay, BXPC3. To be noted: Homo sapiens, BXPC-3, Pancreas, 48 h. As for the experimental part: as §1, §2
The next assay concerns CALU6. Kind of assay: CellTiter-Blue cell-based survival/proliferation assay, CALU6. To be noted: Homo sapiens, Calu-6, Lung, 48 h. As for the experimental part: as §1, §2
The subject of another assay is CLS354. Briefly: CellTiter-Blue cell-based survival/proliferation assay, CLS354. To be noted: Homo sapiens, CLS-354; Head & Neck; CLS354_4; 48 h. The method, then: as §1, §2
The next assay relates to DLD1. Kind of assay: CellTiter-Blue cell-based survival/proliferation assay, DLD1. To be noted: Homo sapiens, DLD-1; Colorectal; DLD_1; 48 h. As for the experimental part:
as §1, §2

Another assay deals with DU145. Briefly: CellTiter-Blue cell-based survival/proliferation assay, DU145. To be noted: Homo sapiens, DU-145, Prostate, 48 h. The method, then:
as §1, §2

The subject of a further assay is H1299. Briefly: CellTiter-Blue cell-based survival/proliferation assay, H1299. To be noted: Homo sapiens, NCI-H1299, Lung, 48 h. The method, then:
as §1, §2

For a further assay, the system named is HCT116. Briefly: CellTiter-Blue cell-based survival/proliferation assay, HCT116. To be noted: Homo sapiens, HCT-116, Colorectal, 48 h. The method, then:
as §1, §2

A further assay deals with HEP2. Kind of assay: CellTiter-Blue cell-based survival/proliferation assay, HEP2. To be noted: Homo sapiens, HEp-2, Head & Neck, 48 h. As for the experimental part:
as §1, §2

For a further assay, the system named is HEPG2. Briefly: CellTiter-Blue cell-based survival/proliferation assay, HEPG2. To be noted: Homo sapiens, Liver, 48 h. As for the experimental part: as §1, §2
The next assay relates to HGC27. Briefly: CellTiter-Blue cell-based survival/proliferation assay, HGC27. To be noted: Homo sapiens, HGC-27, Stomach, 48 h. As for the experimental part: as §1, §2
The test system of a further assay is MDAMB231. Briefly: CellTiter-Blue cell-based survival/proliferation assay, MDAMB231. To be noted: Homo sapiens, MDA-MB-231, Breast, 48 h. As for the experimental part:
as §1, §2

The test system of another assay is MESSA. Kind of assay: CellTiter-Blue cell-based survival/proliferation assay, MESSA. To be noted: Homo sapiens, MES-SA, Ovary, 48 h. As for the experimental part: as §1, §2
For another assay, the system named is PANC1. Kind of assay: CellTiter-Blue cell-based survival/proliferation assay, PANC1. To be noted: Homo sapiens, PANC-1; Pancreas; PANC_1; 48 h. The method, then:
as §1, §2

In a further assay the test system is PC3. Briefly: CellTiter-Blue cell-based survival/proliferation assay, PC3. To be noted: Homo sapiens, PC-3, Prostate, 48 h. As for the experimental part: as §1, §2
The next assay concerns PLCPRF5. Briefly: CellTiter-Blue cell-based survival/proliferation assay, PLCPRF5. To be noted: Homo sapiens, PLC-PRF-5; Liver; PLC_PRF5; 48 h. The method, then:
as §1, §2

The test system of another assay is SW579. Briefly: CellTiter-Blue cell-based survival/proliferation assay, SW579. To be noted: Homo sapiens, Head & Neck, 48 h. The method, then: as §1, §2
A further assay relates to TOV112D. Briefly: CellTiter-Blue cell-based survival/proliferation assay, TOV112D. To be noted: Homo sapiens, Ovary, 48 h. As for the experimental part: as §1, §2

On to `CCOCc1ccc(C)c(Nc2nc(-c3ccc(N4CCNC4=O)cc3)cs2)c1` [Example 003, 1-{4-[2-(5-Ethoxymethyl-(2-methyl-phenylamino))-thiazol-4-yl]-phenyl}-imidazolidin-2-one], for which, in [1], the “interaction with the 456 kinases tested” value is listed as “do not efficiently interact”; the “S-score, type S1” value stood at 0.002; the “S-score, type S10” value came out at 0.009; the “Number of hits/number of kinases, S10” value is reported as 4/456. Further, in assay [1], the “Number of hits/number of kinases, S1” value was 1/456; the “Kinase targets, S10” value is on record as “KIT, KIT V559D,; also recorded: KIT L576P”; the “Kinase targets, S1” value is listed as “PDGFRB”.
For `CCOCc1ccc(C)c(Nc2ncc(-c3ccc(N4CCNC4=O)cc3)o2)c1` [Example 006, 1-{4-[2-(5-Ethoxymethyl-(2-methyl-phenylamino))-oxazol-5-yl]-phenyl}-imidazolidin-2-one], in [1], the “interaction with the 456 kinases tested” value is listed as “do not efficiently interact”; the “S-score, type S1” value stood at 0.000; the “S-score, type S10” value is reported as 0.000; the “Number of hits/number of kinases, S10” value is recorded as 0/456. Further, in assay [1], the “Number of hits/number of kinases, S1” value is 0/456 and the “Kinase targets, S1” value is reported as “None”.
With `CCOCc1ccc(C)c(Nc2ncc(-c3ccc(-n4cccn4)cc3)o2)c1` [Example 033, (5-Ethoxymethyl-2-methyl-phenyl)-[5-(4-pyrazol-1-yl-phenyl)-oxazol-2-yl]-amine], in assay [1], the “interaction with the 456 kinases tested” value is given as “do not efficiently interact”; the “S-score, type S1” value came to 0.000; the “S-score, type S10” value turned out to be 0.002; the “Number of hits/number of kinases, S10” value was 1/456. Moreover, in assay [1], the “Number of hits/number of kinases, S1” value was 0/456 and the “Kinase targets, S10” value was “CDKL3”.
Take `CCOCc1ccc(C)c(Nc2nc(-c3ccc(-n4cccn4)nc3)cs2)c1` [Example 062, 4-(6-(1H-pyrazol-1-yl)pyridin-3-yl)-N-(5-(ethoxymethyl)-2-methylphenyl)thiazol-2-amine]: the IC50 in the assay on HL60 is 100 to 500 nM; in the assay with OPM2, 100 to 500 nM; in the assay on A498, more than 1000 nM; with A549 it was more than 1000 nM; in the assay on ACHN, more than 1000 nM; with AGS, more than 1000 nM. In addition, the IC50 in the assay on BT20 is more than 1000 nM; in the assay on BXPC3, more than 1000 nM; with CALU6 it was more than 1000 nM; with CLS354 it was 500 to 1000 nM; in the assay with DLD1, more than 1000 nM; in the assay with DU145, more than 1000 nM. In addition, the IC50 is more than 1000 nM with H1299; more than 1000 nM in the assay with HCT116; 500 to 1000 nM in the assay with HEP2; more than 1000 nM in the assay on HEPG2; more than 1000 nM in the assay on HGC27; more than 1000 nM in the assay on MDAMB231. In addition, the IC50 was more than 1000 nM with MESSA; more than 1000 nM with PANC1; more than 1000 nM in the assay on PC3; more than 1000 nM in the assay on PLCPRF5; more than 1000 nM with SW579; not above 100 nM with TOV112D.

Values taken from patent publication US20180202388A1, “PISTON FOR AN INTERNAL COMBUSTION ENGINE AND METHOD FOR PRODUCING THE PISTON FOR AN INTERNAL COMBUSTION ENGINE” (FEDERAL-MOGUL NURNBERG GMBH, priority 2015, published 2018).
